Source: patent publication US11840686B2, “Modulation of prekallikrein (PKK) expression” (Ionis Pharmaceuticals, Inc., priority 2013, dated 2023)
Strand notation (5' to 3'): a small letter for the sugar, then the base; units joined by * are phosphorothioate-linked, units joined directly phosphodiester-linked; [ ] holds rarer units or linkages, { } end groups; capitals alone tell only the bases. e = 2'-O-(2-methoxyethyl) (MOE); [5mC] = 5-methylcytosine; d = 2'-deoxy (DNA)

Tested on: human PKK mRNA
Assay: Antisense inhibition of human PKK mRNA in HepaRG cells, 5,000 nM (Example 2)
Type: cell-based
Method in brief: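 HepaRG cells, 20,000 per well, were electroporated with 5,000 nM MOE gapmer (phosphorothioate, 5-methylcytosine) and incubated about 24 hours. PKK mRNA was quantified by qRT-PCR with primer probe set RTS3454, normalized to RIBOGREEN total RNA, and expressed as percent inhibition versus untreated controls.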

[1] = HepaRG cells, 5,000 nM antisense oligonucleotide, 5-10-5 gapmers, Table 16
[2] = human PKK mRNA in HepaRG cells, 5-10-5 gapmers, Table 14
[3] = HepaRG cells, 5,000 nM antisense oligonucleotide, 5-10-5 gapmers, Table 17
[4] = HepaRG cells, electroporation with 5,000 nM antisense oligonucleotide, approximately 24 hours, PKK mRNA by RT-PCR (RTS3454), relative to untreated control cells, Table 5 experiment
[5] = HepaRG cells, electroporation with 5,000 nM antisense oligonucleotide, approximately 24 hours, PKK mRNA by RT-PCR (RTS3454), relative to untreated control cells, Table 6 experiment
[6] = Table 13, human PKK mRNA in HepaRG cells, 5-10-5 gapmers
[7] = Table 9 experiment, HepaRG cells, 20,000 cells per well, electroporation with 5,000 nM antisense oligonucleotide, approx. 24 hours, PKK mRNA by RT-PCR (RTS3454), relative to untreated control cells
[8] = Table 10 experiment, HepaRG cells, 20,000 cells per well, electroporation with 5,000 nM antisense oligonucleotide, approx. 24 hours, PKK mRNA by RT-PCR (RTS3454), relative to untreated control cells
[9] = HepaRG cells, electroporation, 5,000 nM antisense oligonucleotide, approx. 24 hours, primer probe set RTS3454, relative to untreated control cells, Table 11
[10] = human PKK mRNA, HepaRG cells, 5-10-5 motif oligonucleotides targeting SEQ ID NO: 1 and 10
[11] = Table 7, HepaRG cells, electroporation with 5,000 nM antisense oligonucleotide, approx. 24 hours, PKK mRNA by RT-PCR (RTS3454), relative to untreated control cells
[12] = Table 8, HepaRG cells, electroporation with 5,000 nM antisense oligonucleotide, approx. 24 hours, PKK mRNA by RT-PCR (RTS3454), relative to untreated control cells

In the case of “547709 (antisense eA*eG*e[5mC]*e[5mC]*e[5mC]*dA*dA*dT*dG*dT*d[5mC]*d[5mC]*dT*dA*dA*e[5mC]*e[5mC]*eT*eG*eT) [compound 547709]”, the “% inhibition” value [1] is reported as 76%.
“547612 (antisense e[5mC]*e[5mC]*eT*eG*eT*dA*dA*d[5mC]*dA*dG*dT*dA*dT*d[5mC]*dA*e[5mC]*eT*eG*eT*eA) [compound 547612]” was tested, and the “% inhibition” value [2] was 68%.
In the case of “547737 (eT*eG*eG*eT*eG*dG*dT*dG*dG*dG*dA*dT*dT*dG*dG*eT*eG*e[5mC]*eT*eG; antisense) [compound 547737]”, the “% inhibition” value [3] is reported as 59%.
In the case of “547274 (antisense eG*eA*eG*eG*eT*dG*dA*dG*dT*d[5mC]*dT*d[5mC]*dT*dT*dG*eT*e[5mC]*eA*e[5mC]*eT) [compound 547274]”, the “% inhibition” value [4] is reported as 70%.
With “547713 (antisense e[5mC]*eT*e[5mC]*eA*eA*dT*dG*d[5mC]*d[5mC]*dA*d[5mC]*d[5mC]*d[5mC]*dT*dT*eT*e[5mC]*e[5mC]*e[5mC]*e[5mC]) [compound 547713]” the “% inhibition” value [1] was 37%.
For “547351 (antisense eT*eT*eT*eG*eG*d[5mC]*dA*dT*dT*d[5mC]*dT*dT*d[5mC]*dA*dA*e[5mC]*eA*e[5mC]*eT*eG) [compound 547351]”, the “% inhibition” value [5] was 92%.
“547576 (e[5mC]*eT*eA*eG*eT*dT*dT*d[5mC]*d[5mC]*dT*dA*dT*dA*dA*d[5mC]*eT*eG*e[5mC]*eT*eG; antisense) [compound 547576]” was tested, and the “% inhibition” value [6] was 29%.
With “547715 (eG*eG*eT*e[5mC]*eA*dG*dA*dA*dG*dG*d[5mC]*d[5mC]*dT*d[5mC]*dT*eT*eA*eT*eT*e[5mC]; antisense) [compound 547715]” the “% inhibition” value [1] was 21%.
With “546330 (antisense eT*eT*eT*e[5mC]*eT*d[5mC]*d[5mC]*dT*dT*d[5mC]*dG*dA*dG*dA*dA*eG*e[5mC]*e[5mC]*e[5mC]*e[5mC]) [compound 546330]” the “% inhibition” value [7] was 55% and the “% inhibition” value [8] was 67%.
With “546309 (antisense e[5mC]*e[5mC]*e[5mC]*eT*eT*d[5mC]*dT*dG*dA*dG*dA*d[5mC]*dT*dT*dT*eA*eT*eA*eG*eT) [compound 546309]” the “% inhibition” value [7] was 88% and the “% inhibition” value [8] was 81%.
In the case of “546374 (antisense e[5mC]*e[5mC]*eA*eG*eG*d[5mC]*dT*d[5mC]*dA*dG*dA*dA*dT*dT*dT*eG*eA*e[5mC]*eT*eT) [compound 546374]”, the “% inhibition” value [9] is reported as 50%.
“546339 (antisense e[5mC]*eT*eT*eG*eA*dT*dA*dT*d[5mC]*dT*dT*dT*dT*d[5mC]*dT*eG*eG*e[5mC]*eA*eT) [compound 546339]” was tested, and the “% inhibition” value [7] was 65% and the “% inhibition” value [8] was 64%.
In the case of “547641 (e[5mC]*eT*eG*eT*e[5mC]*d[5mC]*dT*dA*dT*dA*dA*d[5mC]*dT*dA*dT*eA*eA*e[5mC]*eA*eG; antisense) [compound 547641]”, the “% inhibition” value [10] is reported as 43%.
For “547619 (antisense eT*e[5mC]*e[5mC]*eT*eA*dT*dA*dA*d[5mC]*dA*dG*dT*dA*dT*d[5mC]*eA*e[5mC]*eT*eG*eT) [compound 547619]”, the “% inhibition” value [2] was 70%.
For “546409 (eG*eG*eG*eT*eT*dT*d[5mC]*dT*dG*d[5mC]*d[5mC]*dA*dA*d[5mC]*dA*eG*eT*eT*eT*e[5mC]; antisense) [compound 546409]”, the “% inhibition” value (HepaRG cells, electroporation, 5,000 nM antisense oligonucleotide, approx. 24 hours, primer probe set RTS3454, relative to untreated control cells, Table 12) was 77%.
In the case of “547387 (eT*eG*eG*eT*eG*dT*dT*dT*dT*d[5mC]*dT*dT*dG*dA*dG*eG*eA*eG*eT*eA; antisense) [compound 547387]”, the “% inhibition” value [11] is reported as 73%.
“546990 (eA*eG*eA*eA*e[5mC]*dA*dG*dG*dA*dG*dA*d[5mC]*dA*dA*dT*e[5mC]*e[5mC]*eA*e[5mC]*eT; antisense) [compound 546990]” was tested, and the “% inhibition” value [1] was 49%.
For “546843 (eT*eA*eT*e[5mC]*eA*d[5mC]*dT*dG*dT*d[5mC]*d[5mC]*dT*dA*dT*dA*eA*e[5mC]*eT*e[5mC]*eT; antisense) [compound 546843]”, the “% inhibition” value [6] was 52%.
With “547319 (antisense eG*eA*eA*eT*eG*dT*d[5mC]*d[5mC]*dA*dG*dA*dA*dA*d[5mC]*dT*eG*e[5mC]*eA*e[5mC]*e[5mC]) [compound 547319]” the “% inhibition” value [5] was 62%.
With “548725 (DNA eA*eT*e[5mC]*dA*d[5mC]*dT*dG*dT*dA*d[5mC]*dT*dA*dG*eT*eT*eT*e[5mC]; antisense) [compound 548725]” the “% inhibition” value (HepaRG cells, 5,000 nM antisense oligonucleotide, human PKK mRNA, Table 18) was 32%.
For “546360 (antisense eA*e[5mC]*eT*eG*e[5mC]*dA*dT*d[5mC]*dT*dG*dA*dG*d[5mC]*dT*dT*eT*eT*e[5mC]*e[5mC]*eA) [compound 546360]”, the “% inhibition” value [9] was 13%.
For “547431 (e[5mC]*eA*eG*eT*eG*dT*dT*dA*d[5mC]*dA*d[5mC]*dA*dA*dT*d[5mC]*eT*e[5mC]*eA*eA*eA; antisense) [compound 547431]”, the “% inhibition” value [12] was 67%.
In the case of “547385 (eT*eG*eT*eG*e[5mC]*d[5mC]*dA*d[5mC]*dT*dT*dT*d[5mC]*dA*dG*dA*eT*eG*eT*eT*eT; antisense) [compound 547385]”, the “% inhibition” value [11] is reported as 80%.
“546850 (eT*eA*eT*e[5mC]*eA*d[5mC]*dT*dG*dT*d[5mC]*d[5mC]*dT*dA*dT*dA*eT*e[5mC]*eA*e[5mC]*eT; antisense) [compound 546850]” was tested, and the “% inhibition” value [2] was 80%.
For “547303 (antisense eT*eT*e[5mC]*eT*e[5mC]*d[5mC]*dA*dT*dG*dT*d[5mC]*dA*dT*dT*dG*eA*eT*eT*eG*eA) [compound 547303]”, the “% inhibition” value [4] was 72%.
“546823 (eT*eA*e[5mC]*eT*eA*dG*dT*dT*dT*d[5mC]*d[5mC]*dT*dA*dT*dA*eA*e[5mC]*eT*eG*e[5mC]; antisense) [compound 546823]” was tested, and the “% inhibition” value [6] was 44%.
In the case of “547416 (e[5mC]*eT*eT*eA*e[5mC]*dA*dG*dT*d[5mC]*dT*dT*d[5mC]*dT*dG*dG*eG*eA*eG*eT*eA; antisense) [compound 547416]”, the “% inhibition” value [12] is reported as 79%.
With “546327 (antisense eG*eG*eT*eT*eA*d[5mC]*d[5mC]*d[5mC]*dA*dA*d[5mC]*dA*dG*dT*dT*eG*eG*eT*eA*eT) [compound 546327]” the “% inhibition” value [7] was 95% and the “% inhibition” value [8] was 84%.
In the case of “547739 (eA*eT*eT*eG*eG*dT*dG*dG*dT*dG*dG*dG*dA*dT*dT*eG*eG*eT*eG*e[5mC]; antisense) [compound 547739]”, the “% inhibition” value [3] is reported as 12%.
With “546394 (eG*eT*e[5mC]*eA*eT*dG*dG*dA*dG*dA*dT*d[5mC]*dT*d[5mC]*dA*eG*eT*eT*eG*e[5mC]; antisense) [compound 546394]” the “% inhibition” value [9] was 71%.
With “547673 (eG*eA*eA*eT*eA*dT*d[5mC]*dA*d[5mC]*dT*dG*dT*d[5mC]*d[5mC]*dT*eA*eT*eA*eA*e[5mC]; antisense) [compound 547673]” the “% inhibition” value [10] was 21%.
“547301 (antisense eT*e[5mC]*eA*eT*eT*dG*dA*dT*dT*dG*dA*dA*d[5mC]*dT*dT*eG*e[5mC]*eT*eG*eG) [compound 547301]” was tested, and the “% inhibition” value [4] was 80%.
In the case of “547410 (e[5mC]*eA*eA*eG*eT*d[5mC]*dT*d[5mC]*dT*dT*dG*dG*d[5mC]*dA*dA*eA*e[5mC]*eA*eT*eT; antisense) [compound 547410]”, the “% inhibition” value [12] is reported as 88%.
With “546749 (eG*e[5mC]*eT*eG*eG*dT*d[5mC]*d[5mC]*dT*dT*dG*dA*dA*d[5mC]*d[5mC]*e[5mC]*e[5mC]*eG*eT*eG; antisense) [compound 546749]” the “% inhibition” value [6] was 53%.
In the case of “547716 (e[5mC]*e[5mC]*eA*eT*e[5mC]*dT*dG*dT*d[5mC]*d[5mC]*d[5mC]*d[5mC]*dT*d[5mC]*dA*eA*eT*e[5mC]*e[5mC]*e[5mC]; antisense) [compound 547716]”, the “% inhibition” value [1] is reported as 9%.
